This note sets out measurements from patent US8609836B2, “4-aryl-2-anilino-pyrimidines” (Janssen Pharmaceutica NV, priority 2008, dated 2013).

The subject of one experiment is HCT-116. Put plainly: Cellular proliferation assay (Alamar blue), HCT-116. It counts as cell-based. To be noted: Homo sapiens, 10% FCS, 72 hours with compound, Alamar blue 4 h. The essentials:
(§1)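 After a 24 h compound-free attachment period, cells in 10% FCS medium are treated for 72 h at 37° C. Resazurin conversion is then quantified by fluorescence, with dye incubation lasting 4 h for HCT-116, 6 h for U87-MG and 24 h for A2780 or MDA-MB-231.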

The target of the next experiment is PLK2 (h) (Homo sapiens, UniProt Q9NYY3). As to the kind of experiment: PLK2 human kinase inhibition, SPA. The settings on record: read-out: PLK2 pIC50 (converted). In kind it is biochemical. The method, boiled down:
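33P incorporation into a biotinylated peptide (2 μM) was captured on streptavidin PVT beads and imaged on Leadseeker. Enzyme at 30 μg/ml, ATP 0.1 μM with 2 nM [γ-33P]ATP, Hepes pH 8.0 with MnCl2 and DTT. Incubation was 20 min at room temperature.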

The target of another experiment is GSK3β (h) (Homo sapiens, UniProt P49841). As to the kind of experiment: GSK-3β human kinase inhibition, SPA. It counts as biochemical. To be noted: read-out: GSK3b pIC50 (converted). The essentials: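 Radiometric: 33P-labelled peptide captured on streptavidin SPA beads after EDTA stop and imaged on Leadseeker. Reaction ran 1 h at RT, 1 μM cold ATP with 2 nM [γ-33P]ATP, 1 μM biotin-peptide substrate, human GSK3β 1 μg/ml, pH 7.4 Tris buffer.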
GSK3β (h), sequence (P49841 whole entry): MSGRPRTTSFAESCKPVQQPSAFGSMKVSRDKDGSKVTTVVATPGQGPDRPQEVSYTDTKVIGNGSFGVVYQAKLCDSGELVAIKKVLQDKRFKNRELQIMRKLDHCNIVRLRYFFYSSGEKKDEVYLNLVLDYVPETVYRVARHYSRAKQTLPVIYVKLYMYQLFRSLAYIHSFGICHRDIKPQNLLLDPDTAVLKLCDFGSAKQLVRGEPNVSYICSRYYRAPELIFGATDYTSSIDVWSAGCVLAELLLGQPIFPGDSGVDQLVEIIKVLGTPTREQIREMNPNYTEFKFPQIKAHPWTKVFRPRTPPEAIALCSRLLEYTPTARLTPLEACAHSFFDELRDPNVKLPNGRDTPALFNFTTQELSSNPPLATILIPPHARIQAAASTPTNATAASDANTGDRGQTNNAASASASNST

For the next experiment, the system named is U87-MG. As to the kind of experiment: Cellular proliferation assay (Alamar blue), U87-MG. In kind it is cell-based. The settings on record: Homo sapiens, U-87 MG; 10% FCS; 72 hours with compound; Alamar blue 6 h; read-out: U87-MG (cellular proliferation assay, Table 4) (converted). The essentials: as §1
In general terms: Resazurin is reduced to fluorescent resorufin, in cell work by metabolically active cells.

For a further experiment, the target named is PLK1 T210D (h) (Homo sapiens, UniProt P53350, T210D). As to the kind of experiment: PLK1 human kinase inhibition, SPA. It counts as biochemical. The settings on record: read-out: PLK1 pIC50 (converted). The method, boiled down: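 Kinase incubated 40 min at room temperature with 0.1 μM ATP (2 nM [γ-33P]ATP tracer), 2 μM biotinylated peptide, pH 8.0 Hepes buffer with 2 mM MnCl2 and 1 mM DTT; enzyme at 0.125 ng/ml. Stopped with EDTA; 33P-peptide bound to streptavidin scintillant beads and imaged.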
PLK1 T210D (h), sequence (P53350 whole entry T210D): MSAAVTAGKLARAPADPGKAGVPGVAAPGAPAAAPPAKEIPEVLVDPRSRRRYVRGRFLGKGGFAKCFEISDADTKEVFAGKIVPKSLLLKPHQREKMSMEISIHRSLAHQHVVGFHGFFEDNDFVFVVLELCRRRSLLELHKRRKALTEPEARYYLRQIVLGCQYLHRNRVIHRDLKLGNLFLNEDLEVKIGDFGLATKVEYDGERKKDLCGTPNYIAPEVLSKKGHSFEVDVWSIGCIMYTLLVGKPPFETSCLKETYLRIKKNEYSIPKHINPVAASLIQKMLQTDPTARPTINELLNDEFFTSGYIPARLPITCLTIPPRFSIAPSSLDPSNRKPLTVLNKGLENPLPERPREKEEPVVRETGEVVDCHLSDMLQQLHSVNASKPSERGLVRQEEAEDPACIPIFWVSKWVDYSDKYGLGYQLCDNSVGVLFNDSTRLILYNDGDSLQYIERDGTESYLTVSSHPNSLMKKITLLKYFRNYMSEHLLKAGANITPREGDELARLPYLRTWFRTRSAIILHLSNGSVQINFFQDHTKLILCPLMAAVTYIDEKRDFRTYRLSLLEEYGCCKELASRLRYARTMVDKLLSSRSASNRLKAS

A further experiment concerns A2780. Put plainly: Cellular proliferation assay (Alamar blue), A2780. It counts as cell-based. To be noted: Homo sapiens, 10% FCS, 72 hours with compound, Alamar blue 24 h, read-out: A2780 (cellular proliferation assay, Table 4) (converted). The essentials:
as §1

For a further experiment, the system named is MDA-MB-231. As to the kind of experiment: Cellular proliferation assay (Alamar blue), MDA-MB-231. To be noted: Homo sapiens, 10% FCS, 72 hours with compound, Alamar blue 24 h, read-out: MDA/MB231 (cellular proliferation assay, Table 4) (converted). It counts as cell-based. The method, boiled down:
as §1

For the next experiment, the target named is PLK4 (h) (Homo sapiens, UniProt O00444). Put plainly: PLK-4 human kinase inhibition, scintillation proximity assay (SPA). In kind it is biochemical. The settings on record: read-out: PLK4 pIC50 (converted).
PLK4 (h), sequence (O00444 whole entry): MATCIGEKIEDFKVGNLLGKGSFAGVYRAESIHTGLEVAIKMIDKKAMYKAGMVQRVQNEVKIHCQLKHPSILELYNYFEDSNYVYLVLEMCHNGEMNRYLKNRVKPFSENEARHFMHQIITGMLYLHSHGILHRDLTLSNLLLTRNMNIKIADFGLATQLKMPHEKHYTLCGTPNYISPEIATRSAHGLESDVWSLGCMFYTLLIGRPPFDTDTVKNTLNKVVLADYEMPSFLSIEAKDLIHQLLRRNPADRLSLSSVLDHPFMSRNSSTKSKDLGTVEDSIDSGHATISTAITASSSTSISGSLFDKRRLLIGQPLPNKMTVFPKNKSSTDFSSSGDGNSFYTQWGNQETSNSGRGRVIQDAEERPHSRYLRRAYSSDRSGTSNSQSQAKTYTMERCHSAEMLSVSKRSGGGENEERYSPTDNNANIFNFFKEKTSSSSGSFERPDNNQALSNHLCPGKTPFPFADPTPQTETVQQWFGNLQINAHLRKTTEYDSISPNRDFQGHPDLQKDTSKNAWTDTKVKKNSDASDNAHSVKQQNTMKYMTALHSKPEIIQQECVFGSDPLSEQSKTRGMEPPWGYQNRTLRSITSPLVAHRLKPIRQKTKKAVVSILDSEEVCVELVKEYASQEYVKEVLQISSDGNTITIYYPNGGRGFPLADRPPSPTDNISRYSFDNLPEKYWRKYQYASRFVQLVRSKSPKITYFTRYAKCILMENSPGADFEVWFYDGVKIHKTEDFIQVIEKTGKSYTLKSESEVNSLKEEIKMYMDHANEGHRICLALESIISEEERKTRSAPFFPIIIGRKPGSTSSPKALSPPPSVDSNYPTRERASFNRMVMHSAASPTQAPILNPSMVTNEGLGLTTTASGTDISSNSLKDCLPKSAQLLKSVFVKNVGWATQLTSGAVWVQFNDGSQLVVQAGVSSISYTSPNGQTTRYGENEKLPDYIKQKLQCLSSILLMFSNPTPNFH
The next experiment concerns the target CDK1/CyclinB (h) (Homo sapiens, UniProt P06493). As to the kind of experiment: CDK1/CyclinB human kinase inhibition, Invitrogen's FRET assay (Z'lyte). In kind it is biochemical. The settings on record: read-out: CDK1 pIC50 (converted). The method, boiled down:
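Read-out is the 460 nm/538 nm emission ratio (390 nm excitation) after a 60 min protease development step. Before that, 10 μM ATP and 2 μM Z'lyte Ser/Thr peptide 12 react 60 min at room temperature with 0.2 μg/ml human CDK1/CyclinB in Hepes pH 7.5 containing MgCl2, EGTA and Brij-35.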

CDK1/CyclinB (h), sequence (P06493 whole entry): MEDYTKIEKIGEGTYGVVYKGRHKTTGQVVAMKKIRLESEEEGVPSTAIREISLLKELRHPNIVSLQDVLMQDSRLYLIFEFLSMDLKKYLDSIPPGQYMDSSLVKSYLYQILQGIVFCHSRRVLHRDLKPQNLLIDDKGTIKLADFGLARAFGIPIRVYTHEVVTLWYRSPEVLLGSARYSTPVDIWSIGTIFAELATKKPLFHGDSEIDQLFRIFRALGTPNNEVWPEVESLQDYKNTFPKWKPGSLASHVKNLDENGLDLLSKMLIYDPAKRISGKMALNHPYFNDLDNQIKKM
CDK1/CyclinB (h), sequence (P14635 whole entry partner): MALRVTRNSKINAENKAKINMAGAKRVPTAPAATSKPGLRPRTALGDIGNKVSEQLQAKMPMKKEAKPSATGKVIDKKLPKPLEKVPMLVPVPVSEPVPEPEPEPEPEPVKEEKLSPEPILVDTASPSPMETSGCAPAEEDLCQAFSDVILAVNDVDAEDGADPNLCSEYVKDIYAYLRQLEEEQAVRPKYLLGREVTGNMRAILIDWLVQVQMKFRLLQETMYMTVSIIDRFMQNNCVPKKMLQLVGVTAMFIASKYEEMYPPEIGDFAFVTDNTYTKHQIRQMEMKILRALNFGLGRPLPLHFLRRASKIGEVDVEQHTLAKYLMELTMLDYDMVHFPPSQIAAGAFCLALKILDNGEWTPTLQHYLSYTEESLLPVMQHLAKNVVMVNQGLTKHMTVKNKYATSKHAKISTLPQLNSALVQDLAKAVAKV
PLK2 (h), sequence (Q9NYY3 whole entry): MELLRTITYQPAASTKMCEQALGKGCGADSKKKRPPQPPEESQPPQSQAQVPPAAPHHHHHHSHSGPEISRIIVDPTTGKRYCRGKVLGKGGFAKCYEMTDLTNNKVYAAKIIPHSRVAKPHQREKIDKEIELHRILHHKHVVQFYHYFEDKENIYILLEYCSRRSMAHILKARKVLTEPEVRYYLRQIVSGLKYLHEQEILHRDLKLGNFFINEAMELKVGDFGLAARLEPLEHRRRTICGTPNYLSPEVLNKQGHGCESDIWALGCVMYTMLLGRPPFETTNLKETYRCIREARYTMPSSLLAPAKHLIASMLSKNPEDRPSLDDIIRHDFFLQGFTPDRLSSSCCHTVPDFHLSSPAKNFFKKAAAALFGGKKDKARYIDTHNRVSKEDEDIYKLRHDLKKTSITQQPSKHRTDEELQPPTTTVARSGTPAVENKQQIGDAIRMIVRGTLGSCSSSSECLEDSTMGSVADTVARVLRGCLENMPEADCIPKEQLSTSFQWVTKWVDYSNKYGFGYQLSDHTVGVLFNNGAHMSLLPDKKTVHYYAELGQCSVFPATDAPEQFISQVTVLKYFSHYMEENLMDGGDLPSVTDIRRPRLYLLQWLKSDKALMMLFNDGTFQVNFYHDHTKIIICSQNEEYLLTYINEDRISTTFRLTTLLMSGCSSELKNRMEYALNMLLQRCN

For `O=C1NCCOc2cccc(c2)-c2ccnc(n2)Nc2ccc(N3CCOCC3)c(c2)CN2CCC1CC2` [Compound 94], the IC50 was 9.12 µM in the experiment on HCT-116; more than 10 µM on PLK2 (h); 2.95 µM at GSK3β (h); more than 10 µM with U87-MG; more than 10 µM on PLK1 T210D (h); more than 10 µM in the experiment with A2780. Also, the results for the IC50 with MDA-MB-231, at PLK4 (h) and on CDK1/CyclinB (h) were more than 10 µM, 2.63 µM and more than 10 µM, respectively.

As to `O=C1NCc2cccc(c2)-c2ccnc(n2)Nc2ccc(cc2)CN2C[C@H](O)C[C@@H]12` [Compound 55], the IC50 in the experiment with HCT-116, at PLK2 (h), on GSK3β (h), in the experiment with U87-MG, on PLK1 T210D (h) and in the experiment with A2780 was more than 10 µM each time. Further, the IC50 in the experiment on MDA-MB-231, on PLK4 (h) and on CDK1/CyclinB (h) was more than 10 µM throughout.

For `COc1cc2cc(c1)Nc1nccc(n1)-c1ccc(OC)c(c1)CN(C)CCNC(=O)CN1CCN(CC1)C2` [Compound 127], the IC50 is 6.46 µM in the experiment on HCT-116; more than 10 µM on PLK2 (h); 5.01 µM at GSK3β (h); more than 10 µM in the experiment on U87-MG; more than 10 µM on PLK1 T210D (h); more than 10 µM in the experiment on A2780. Also, the IC50 was more than 10 µM in the experiment on MDA-MB-231, 0.813 µM on PLK4 (h) and more than 10 µM on CDK1/CyclinB (h).

On to `CN1CCNC(=O)[C@H](CO)NCc2cccc(c2)Nc2nccc(n2)-c2ccc(cc2)C1` [Compound 114], for which the IC50 in the experiment with HCT-116 was more than 10 µM; at PLK2 (h) it was approximately 3.02 µM; at GSK3β (h), 2.82 µM; in the experiment on U87-MG, more than 10 µM; on PLK1 T210D (h), more than 10 µM; in the experiment on A2780 it was more than 10 µM. Besides, the IC50 is more than 10 µM with MDA-MB-231, 1.2 µM at PLK4 (h) and more than 10 µM on CDK1/CyclinB (h).

`O=C1NCc2cc(ccc2N2CCOCC2)Nc2nccc(n2)-c2cccc(c2)CN2CCC[C@@H]12` [Compound 15]: the IC50 in the experiment with HCT-116 was 8.32 µM; on PLK2 (h), more than 10 µM; on GSK3β (h), 0.372 µM; in the experiment on U87-MG, 7.94 µM; at PLK1 T210D (h) it was more than 10 µM; with A2780, 7.08 µM. For the same compound, the figures for the IC50 in the experiment on MDA-MB-231, at PLK4 (h) and on CDK1/CyclinB (h) were more than 10 µM, 0.575 µM and more than 10 µM, respectively.

`O=C1CN2CCN(CC2)Cc2cccc(c2)Nc2nccc(n2)-c2cccc(c2)CN1` [Compound 196]: the IC50 is more than 10 µM in the experiment on HCT-116; more than 10 µM at PLK2 (h); 1.07 µM on GSK3β (h); more than 10 µM in the experiment on U87-MG; more than 10 µM on PLK1 T210D (h); more than 10 µM in the experiment on A2780. In addition, the IC50 in the experiment on MDA-MB-231, on PLK4 (h) and at CDK1/CyclinB (h) was more than 10 µM each time.

On to `COc1cc2cc(c1)Nc1nccc(n1)-c1ccc(cc1)CN(C)CCNC(=O)CN1CCN(CC1)C2` [Compound 132], for which the IC50 in the experiment with HCT-116 is 5.89 µM; at PLK2 (h) it was more than 3.02 µM; at GSK3β (h) it was 2 µM; with U87-MG, 8.71 µM; at PLK1 T210D (h), more than 10 µM; with A2780, more than 10 µM. Besides, the IC50 was more than 10 µM with MDA-MB-231, 1.41 µM at PLK4 (h) and more than 10 µM on CDK1/CyclinB (h).

On to `CC(C)Nc1cc2cc(c1)Nc1nccc(n1)-c1ccc(cc1)CN(C)CCCNC(=O)CN1CCN(CC1)C2` [Compound 131], for which the IC50 is 5.25 µM in the experiment on HCT-116; more than 10 µM at PLK2 (h); 4.37 µM at GSK3β (h); more than 10 µM in the experiment with U87-MG; more than 10 µM on PLK1 T210D (h); more than 10 µM in the experiment on A2780. Also, the IC50 with MDA-MB-231 was more than 10 µM; at PLK4 (h), 1.26 µM; at CDK1/CyclinB (h), more than 10 µM.

For the compound `COc1cc2cc(c1)Nc1nccc(n1)-c1ccc(OC)c(c1)CN(C)CCNC(=O)[C@H](CO)NC2` [Compound 107], the IC50 is 4.37 µM in the experiment on HCT-116; more than 10 µM at PLK2 (h); 6.31 µM at GSK3β (h); 8.91 µM with U87-MG; more than 10 µM on PLK1 T210D (h); more than 10 µM with A2780. In addition, the IC50 was more than 10 µM in the experiment with MDA-MB-231, 0.589 µM at PLK4 (h) and more than 10 µM at CDK1/CyclinB (h).

Take `O=C(NC1CCOCC1)c1cc2cc(c1)Nc1nccc(n1)-c1cccc(c1)CNC(=O)[C@@H]1CCCN1C2` [Compound 37]: the IC50 is more than 10 µM with HCT-116; more than 10 µM on PLK2 (h); 0.676 µM at GSK3β (h); more than 10 µM with U87-MG; more than 10 µM on PLK1 T210D (h); more than 10 µM with A2780. In addition, the results for the IC50 in the experiment on MDA-MB-231, at PLK4 (h) and at CDK1/CyclinB (h) were more than 10 µM, 0.245 µM and 5.37 µM, respectively.

Take `COc1cc2cc(c1)Nc1nccc(n1)-c1ccc(OC)c(c1)CN(C)CCCNC(=O)CN1CCN(CC1)C2` [Compound 140]: the IC50 in the experiment with HCT-116 is 1.55 µM; on PLK2 (h), more than 10 µM; on GSK3β (h), 7.41 µM; in the experiment on U87-MG it was 4.07 µM; at PLK1 T210D (h) it was more than 10 µM; in the experiment with A2780 it was more than 10 µM. In addition, the IC50 was more than 10 µM in the experiment on MDA-MB-231, 2.69 µM at PLK4 (h) and more than 10 µM at CDK1/CyclinB (h).

With `COc1cc2cc(c1)Nc1nccc(n1)-c1ccc(cc1)CN(C)CCCNC(=O)C1CCN(CC1)C2` [Compound 66], the IC50 in the experiment with HCT-116 was 1.02 µM; on PLK2 (h) it was more than 3.02 µM; on GSK3β (h) it was 1.07 µM; in the experiment with U87-MG, 2.88 µM; at PLK1 T210D (h) it was more than 10 µM; in the experiment with A2780 it was 6.31 µM. Further, the figures for the IC50 with MDA-MB-231, on PLK4 (h) and on CDK1/CyclinB (h) were 8.32 µM, 1.35 µM and more than 10 µM, respectively.

Consider `COc1cc2cc(c1)Nc1nccc(n1)-c1ccc(OC)c(c1)CN(C)CCNC(=O)C1CCN(CC1)C2` [Compound 67], for which the IC50 with HCT-116 was more than 10 µM; on PLK2 (h), more than 3.02 µM; on GSK3β (h), 3.09 µM; in the experiment with U87-MG, more than 10 µM; on PLK1 T210D (h), more than 10 µM; in the experiment on A2780, more than 10 µM. Also, the figures for the IC50 in the experiment with MDA-MB-231, on PLK4 (h) and on CDK1/CyclinB (h) were more than 10 µM, 1.51 µM and more than 10 µM, respectively.

Take `COc1cc2cc(c1OC)CN1CCC[C@H]1C(=O)NCc1cccc(c1)-c1ccnc(n1)N2` [Compound 23]: the IC50 in the experiment with HCT-116 is more than 10 µM; on PLK2 (h), more than 10 µM; at GSK3β (h) it was 0.195 µM; in the experiment on U87-MG, more than 10 µM; at PLK1 T210D (h), more than 10 µM; with A2780, more than 10 µM. The IC50 in the experiment with MDA-MB-231 is more than 10 µM; on PLK4 (h), 0.0741 µM; at CDK1/CyclinB (h) it was more than 10 µM.

With `CN1CCC(NC(=O)c2cc3cc(c2)Nc2nccc(n2)-c2cccc(c2)CNC(=O)[C@@H]2CCCN2C3)CC1` [Compound 38], the IC50 is 1.23 µM with HCT-116; more than 10 µM at PLK2 (h); 0.186 µM on GSK3β (h); 1 µM with U87-MG; more than 10 µM at PLK1 T210D (h); 2.69 µM in the experiment on A2780. Further, the IC50 with MDA-MB-231 was 6.31 µM; on PLK4 (h), 0.263 µM; on CDK1/CyclinB (h), 1.66 µM.

In the case of `CN1CCN(C(=O)c2ccc3cc2CN2CCC[C@H]2C(=O)NCc2cccc(c2)-c2ccnc(n2)N3)CC1` [Compound 25], the IC50 in the experiment with HCT-116 is 3.72 µM; at PLK2 (h), more than 10 µM; on GSK3β (h) it was 0.0813 µM; in the experiment with U87-MG, more than 10 µM; on PLK1 T210D (h), more than 10 µM; in the experiment with A2780, 4.47 µM. The IC50 was more than 10 µM in the experiment on MDA-MB-231, 0.0933 µM on PLK4 (h) and more than 10 µM on CDK1/CyclinB (h).
